According to patent US8420144B2, “Kokumi-imparting agent, method of using, and compositions containing same” (Ajinomoto Co., Inc., priority 2005, dated 2013):

Columns and labels:
Assay type in all cases: in vivo, human
[1] = Quantitative sensory evaluation test: imparting kokumi to curry sauce; details: n=12, 0 control, 3 intense, 5 extremely intense
Description: The intensity of the activity for imparting kokumi to curry sauce of each peptide having confirmed calcium receptor activation activity was measured by a quantitative sensory evaluation test, performed as follows: to curry sauce prepared in a conventional manner by using commercially available curry roux, samples of either γ-Glu-Cys-Gly (glutathione) or γ-Glu-Val-Gly were added to a concentration of 0.0001 to 1 g/dl, and the intensity of kokumi-imparting activity was measured for each sample. The curry sauces with the samples that became acidic after dissolution of the samples with respect to the curry soup without the samples were adjusted with NaOH to pH not lower or higher by 0.2 than pH of the curry soup without the samples before use. Sensory evaluation scores were used to evaluate as follows: 0 points for the control sample, 3 points for intense activity as compared to the control, and 5 points for extremely intense activity as compared to the control, and the test was performed with n=12.

[2] = Quantitative sensory evaluation test: kokumi-imparting activity of peptides combined with known calcium receptor activators or additives; details: for Intensity of kokumi: Aftertaste / Intensity of kokumi: First and middle taste: alone, n=12, 0 control, 3 intense, 6 extremely intense
Description: The intensity of the kokumi-imparting activity of each peptide having confirmed calcium receptor activation activity and a known calcium receptor activator used in combination was measured by a quantitative sensory evaluation test, performed as follows: Samples of γ-Glu-Cys-Gly (glutathione) or γ-Glu-Val-Gly (0.0001 to 1 g/dl), or these samples combined with a calcium receptor activator such as calcium lactate, protamine or polylysine, or GABA (addition concentration: 0.0001 to 1 g/dl) were added to distilled water containing sodium glutamate (0.05 g/dl), inosine monophosphate (0.05 g/dl), and sodium chloride (0.5 g/dl), and the intensity of the kokumi-imparting activity was measured. Sample solutions that became acidic after dissolution of the samples were adjusted to pH 6.8 to 7.2 with NaOH before use. Sensory evaluation scores were used to evaluate as follows: 0 points for the control sample, 3 points for intense activity (as intensity of 0.05 g/dl γ-Glu-Cys-Gly and 0.005 g/dl γ-Glu-Val-Gly), and 6 points for extremely intense activity (as twice intensity of 0.05 g/dl γ-Glu-Cys-Gly and 0.005 g/dl γ-Glu-Val-Gly), and the test was performed with n=12.

[3] = Quantitative sensory evaluation test of kokumi-imparting activity in water with sodium glutamate, inosine monophosphate and sodium chloride; design: key: *: Unmeasurable: Kokumi-imparting activity was too strong and could not be measured by the sensory evaluation
Description: Sample solutions that became acidic after dissolution of the samples were adjusted to pH 6.8 to 7.2 with NaOH before use. Sensory evaluation scores were used for evaluation based on the control sample (0 points) and the glutathione sample (3 points), and the test was performed with n=3.
The sample solutions that became acidic after dissolution of the samples were adjusted to pH 6.8 to 7.2 with NaOH before use. Sensory evaluation scores were used for evaluation based on the control sample (0 points) and the glutathione sample (3 points), and the test was performed with n=5.
Sample solutions that became acidic after dissolution of the samples were adjusted to pH 6.8 to 7.2 with NaOH before use. Sensory evaluation scores were used for evaluation based on the control sample (0 points) and the glutathione sample (3 points), and the test was performed with n=12.

[4] = Quantitative sensory evaluation test of activity on basic tastes (umami, sweet, salty, sour standards); details: n=12, 0 control, 1 fairly intense, 2 intense; for Sour taste (intensity of activity on basic tastes): citric acid 0.05 g/dl standard; for Salty taste (intensity of activity on basic tastes): sodium chloride 0.7 g/dl standard; for Umami (intensity of activity on basic tastes): sodium glutamate 0.2 g/dl standard; for Sweet taste (intensity of activity on basic tastes): sucrose 5 g/dl standard
Description: The intensity of the activity on basic tastes of each peptide having confirmed calcium receptor activation activity was measured by a quantitative sensory evaluation test, performed as follows: Samples of either γ-Glu-Cys-Gly (glutathione) or γ-Glu-Val-Gly were added to distilled water (0.0001 to 1 g/dl) containing sodium glutamate (0.2 g/dl) for the umami standard, sucrose (5 g/dl) for the sweet taste standard, sodium chloride (0.7 g/dl) or the salty taste standard, or citric acid (0.05 g/dl) for the sour taste standard, and the intensity of the activity on basic tastes was measured for each sample.
Sample solutions that became acidic after dissolution of the samples with respect to the standard solutions without the samples were adjusted with NaOH to pH not lower or higher by 0.2 than pH of the standard solutions before use. Sensory evaluation scores were used to evaluate the intensity as follows: 0 points for the control sample, 1 point for fairly intense activity as compared to the control, and 2 points for intense activity as compared to the control, and the test was performed with n=12.

[5] = Quantitative sensory evaluation test: imparting kokumi to consomme soup; details: n=12, 0 control, 3 intense, 5 extremely intense
Description: The intensity of activity for imparting kokumi to consomme soup of each peptide having confirmed calcium receptor activation activity was measured by a quantitative sensory evaluation test, performed as follows: Consomme soup was prepared by dissolving consomme soup powder (35% of sodium chloride, 18% of sodium glutamate, 0.2% of inosine monophosphate, 0.3% of white pepper powder, 0.5% of black pepper powder, 8.0% of beef extract powder, 3.0% of white wine powder, 2.0% of celery powder, 8.0% of Chinese cabbage extract powder, 2.5% of onion extract powder, […]) at a concentration of 5 g/dl. To this consomme soup, samples of either γ-Glu-Cys-Gly (glutathione) or γ-Glu-Val-Gly was added to a concentration of 0.0001 to 1 g/dl, and the intensity of the kokumi-imparting activity was measured for each sample. The consomme soup with the samples that became acidic after dissolution of the samples with respect to the consomme soup without the samples was adjusted with NaOH to pH not lower or higher by 0.2 than pH of the consomme soup without the samples before use. Sensory evaluation scores were used for evaluation as follows: 0 points for the control sample, 3 points for intense activity as compared to the control, and 5 points for extremely intense activity as compared to the control, and the test was performed with n=12.

[6] = Quantitative sensory evaluation test: imparting kokumi to Japanese clear soup; details: n=12, 0 control, 3 intense, 5 extremely intense
Description: The intensity of activity for imparting kokumi to clear soup of each peptide having confirmed calcium receptor activation activity was measured by a quantitative sensory evaluation test, performed as follows: Japanese clear soup was prepared by adding 0.5 g/dl of soy sauce and 0.6 g/dl of sodium chloride to bonito kelp stock, obtained by adding 5 g of dried kelp to 3 L of water, heating the water, adding 25 g of dried bonito flakes just before boiling, and then filtering the water containing kelp and bonito flakes. To this clear soup, samples of either γ-Glu-Cys-Gly (glutathione) or γ-Glu-Val-Gly was added to a concentration of 0.0001 to 1 g/dl, and the intensity of the kokumi-imparting activity was measured for each sample. The clear soup with the samples that became acidic after dissolution of the samples with respect to the clear soup without the samples were adjusted with NaOH to pH not lower or higher by 0.2 than pH of the clear soup without the samples before use. Sensory evaluation scores were used to evaluate as follows: 0 points for the control sample, 3 points for intense activity as compared to the control, and 5 points for extremely intense activity as compared to the control, and the test was performed with n=12.

[7] = Table 5, 0.1 g/dl, n=3, control 0, glutathione 3 points
[8] = Table 6, 0.1 g/dl, n=5, control 0, glutathione 3 points
[9] = Table 7, 0.1 g/dl, n=12, control 0, glutathione 3 points
[10] = Table 6, 0.01 g/dl, n=5, control 0, glutathione 3 points
[11] = Table 7, 0.01 g/dl, n=12, control 0, glutathione 3 points

For N[C@@H](CCC(=O)N[C@@H](CS)C(=O)NCC(=O)O)C(=O)O [γ-Glu-Cys-Gly, reference compound], the “Intensity of kokumi: Aftertaste” value ([1]; 0.01 g/dl) was 3.0 points, the “Intensity of kokumi: First and middle taste” value ([1]; 0.01 g/dl) was 3.0 points and the “Intensity of kokumi: Aftertaste” value ([2]; 0.05 g/dl) was 3.0 points. The “Intensity of kokumi: First and middle taste” value ([2]; 0.05 g/dl) was 3.0 points, the “kokumi-imparting activity when used with a known calcium receptor activator or the like such as calcium” value ([2]; conclusion from Table 13) was “can have improved kokumi-imparting activity” and the “Intensity of kokumi: Aftertaste” value [3, 7] was 3.0 points. The “Intensity of kokumi: First and middle taste” value [3, 7] was 3.0 points, the “Intensity of kokumi: Aftertaste” value [3, 8] was 3.0 points and the “Intensity of kokumi: First and middle taste” value [3, 8] was 3.0 points. For the same compound, the “Intensity of kokumi: Aftertaste” value [3, 9] was 3.0 points, the “Intensity of kokumi: First and middle taste” value [3, 9] was 3.0 points and the “Sour taste (intensity of activity on basic tastes)” value (shortened to “Sour taste”) ([4]; 0.10 g/dl) was 1.5 points. For the same compound, the “Salty taste (intensity of activity on basic tastes)” value (“Salty taste” below) ([4]; 0.10 g/dl) was 0.2 points, the “Umami (intensity of activity on basic tastes)” value (shortened to “Umami”) ([4]; 0.10 g/dl) was 0.7 points and the “Sweet taste (intensity of activity on basic tastes)” value (shortened to “Sweet taste”) ([4]; 0.10 g/dl) was 1.5 points. The “Intensity of kokumi: Aftertaste” value ([5]; 0.01 g/dl) was 3.0 points, the “Intensity of kokumi: First and middle taste” value ([5]; 0.01 g/dl) was 3.0 points and the “Intensity of kokumi: Aftertaste” value ([6]; 0.01 g/dl) was 2.0 points. The “Intensity of kokumi: First and middle taste” value ([6]; 0.01 g/dl) was 2.0 points.
For CC(C)[C@H](NC(=O)CC[C@H](N)C(=O)O)C(=O)NCC(=O)O [γ-Glu-Val-Gly], the “Intensity of kokumi: Aftertaste” value ([1]; 0.001 g/dl) was 3.0 points, the “Intensity of kokumi: First and middle taste” value ([1]; 0.001 g/dl) was 2.5 points and the “Intensity of kokumi: Aftertaste” value ([1]; 0.005 g/dl) was 4.0 points. The “Intensity of kokumi: First and middle taste” value ([1]; 0.005 g/dl) was 3.5 points, the “Intensity of kokumi: Aftertaste” value ([1]; 0.01 g/dl) was 5.0 points and the “Intensity of kokumi: First and middle taste” value ([1]; 0.01 g/dl) was 5.0 points. For the same compound, the “Intensity of kokumi: Aftertaste” value ([1]; 0.1 g/dl) was 5.0 points, the “Intensity of kokumi: First and middle taste” value ([1]; 0.1 g/dl) was 5.0 points and the “Intensity of kokumi: Aftertaste” value ([2]; 0.005 g/dl) was 3.0 points. For the same compound, the “Intensity of kokumi: First and middle taste” value ([2]; 0.005 g/dl) was 3.0 points, the “Intensity of kokumi: Aftertaste” value [3, 10] was 3.0 points and the “Intensity of kokumi: First and middle taste” value [3, 10] was 3.0 points. For the same compound, the “Intensity of kokumi: Aftertaste” value ([3]; Table 6, 0.1 g/dl, n=5) was “*”, the “Intensity of kokumi: First and middle taste” value ([3]; Table 6, 0.1 g/dl, n=5) was “*” and the “Intensity of kokumi: Aftertaste” value [3, 11] was 3.0 points. The “Intensity of kokumi: First and middle taste” value [3, 11] was 3.0 points, the “Sour taste” value ([4]; 0.005 g/dl) was 0.5 points and the “Salty taste” value ([4]; 0.005 g/dl) was 0.5 points. The “Umami” value ([4]; 0.005 g/dl) was 0.7 points, the “Sweet taste” value ([4]; 0.005 g/dl) was 0.5 points and the “Sour taste” value ([4]; 0.01 g/dl) was 1.0 points. The “Salty taste” value ([4]; 0.01 g/dl) was 1.0 points, the “Umami” value ([4]; 0.01 g/dl) was 1.5 points and the “Sweet taste” value ([4]; 0.01 g/dl) was 1.0 points. The “Intensity of kokumi: Aftertaste” value ([5]; 0.0005 g/dl) was 3.0 points, the “Intensity of kokumi: First and middle taste” value ([5]; 0.0005 g/dl) was 2.5 points and the “Intensity of kokumi: Aftertaste” value ([5]; 0.001 g/dl) was 3.5 points. The “Intensity of kokumi: First and middle taste” value ([5]; 0.001 g/dl) was 3.0 points, the “Intensity of kokumi: Aftertaste” value ([5]; 0.01 g/dl) was 5.0 points and the “Intensity of kokumi: First and middle taste” value ([5]; 0.01 g/dl) was 5.0 points. The “Intensity of kokumi: Aftertaste” value ([5]; 0.1 g/dl) was 5.0 points, the “Intensity of kokumi: First and middle taste” value ([5]; 0.1 g/dl) was 5.0 points and the “Intensity of kokumi: Aftertaste” value ([6]; 0.0005 g/dl) was 3.0 points. For the same compound, the “Intensity of kokumi: First and middle taste” value ([6]; 0.0005 g/dl) was 2.5 points, the “Intensity of kokumi: Aftertaste” value ([6]; 0.001 g/dl) was 4.0 points and the “Intensity of kokumi: First and middle taste” value ([6]; 0.001 g/dl) was 3.5 points. For the same compound, the “Intensity of kokumi: Aftertaste” value ([6]; 0.01 g/dl) was 5.0 points, the “Intensity of kokumi: First and middle taste” value ([6]; 0.01 g/dl) was 5.0 points and the “Intensity of kokumi: Aftertaste” value ([6]; 0.1 g/dl) was 5.0 points. The “Intensity of kokumi: First and middle taste” value ([6]; 0.1 g/dl) was 5.0 points.
